In patent US6737383B1, “Herbicidal oxadiazolidines” (priority 1999, dated 2004):

What was measured:
[1] = system: sugar beet; assay: Test B pre/postemergence sugar beet; assay type: in vivo, Beta vulgaris
Summary of the method: (§1)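 Response is a visual 0-to-10 score relative to untreated plants, where 0 means no effect and 10 means complete control, taken twelve to sixteen days after application. Treatments went onto soil at planting and onto foliage of 1- to 4-leaf plants, using a surfactant-containing non-phytotoxic solvent.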

[2] = system: smallflower flatsedge; assay: Test B flood test smallflower flatsedge; assay type: in vivo, Cyperus difformis
Summary of the method: (§2)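 Plants were grown to the 2-leaf stage before treatment with test chemical, then held in a greenhouse for twelve to sixteen days. Injury was visually rated against untreated controls on a 0–10 scale, where 0 is no effect and 10 is complete control.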

[3] = system: wheat; assay: Test B pre/postemergence wheat; assay type: in vivo, Triticum aestivum
Summary of the method: as §1

[4] = system: bedstraw; assay: Test B pre/postemergence bedstraw; assay type: in vivo, Galium aparine
Summary of the method: as §1

[5] = system: purple nutsedge; assay: Test B pre/postemergence purple nutsedge; assay type: in vivo, Cyperus rotundus
Summary of the method: as §1

[6] = system: duck salad; assay: Test B flood test duck salad; assay type: in vivo, Heteranthera limosa
Summary of the method: as §2

[7] = system: rice; assay: Test B flood test rice; assay type: in vivo, Oryza sativa
Summary of the method: as §2

[8] = system: surinam grass; assay: Test B pre/postemergence surinam grass; assay type: in vivo, Brachiaria decumbens
Summary of the method: as §1

[9] = system: rape; assay: Test B pre/postemergence rape; assay type: in vivo, Brassica napus
Summary of the method: as §1

[10] = system: velvetleaf; assay: Test B pre/postemergence velvetleaf; assay type: in vivo, Abutilon theophrasti
Summary of the method: as §1

[11] = system: cocklebur; assay: Test B pre/postemergence cocklebur; assay type: in vivo, Xanthium strumarium
Summary of the method: as §1

[12] = system: wild oat; assay: Test B pre/postemergence wild oat; assay type: in vivo, Avena fatua
Summary of the method: as §1

[13] = system: soybean; assay: Test B pre/postemergence soybean; assay type: in vivo, Glycine max
Summary of the method: as §1

[14] = system: corn; assay: Test B pre/postemergence corn; assay type: in vivo, Zea mays
Summary of the method: as §1

[15] = system: crabgrass; assay: Test B pre/postemergence crabgrass; assay type: in vivo, Digitaria sanguinalis
Summary of the method: as §1

[16] = system: blackgrass; assay: Test B pre/postemergence blackgrass; assay type: in vivo, Alopecurus myosuroides
Summary of the method: as §1

[17] = system: bamyardgrass; assay: Test B flood test barnyardgrass; assay type: in vivo, Echinochloa crus-galli
Summary of the method: as §2

[18] = Preemergence, Rate 62 g/ha, scale of 0 to 10 where 0 is no effect and 10 is complete control
[19] = Preemergence, Rate 250 g/ha, scale of 0 to 10 where 0 is no effect and 10 is complete control
[20] = Preemergence, Rate 500 g/ha, scale of 0 to 10 where 0 is no effect and 10 is complete control
[21] = Rate 62 g/ha, Postemergence, scale of 0 to 10 where 0 is no effect and 10 is complete control
[22] = Rate 125 g/ha, Postemergence, scale 0 to 10
[23] = Rate 125 g/ha, Preemergence, scale of 0 to 10 where 0 is no effect and 10 is complete control
[24] = Rate 500 g/ha, Postemergence, scale 0 to 10, 0 no effect, 10 complete control
[25] = Rate 62 g/ha, headed Pre-emergence (flood test species), scale 0 to 10 (0 no effect, 10 complete control)
[26] = Rate 125 g/ha, Pre-emergence, flood test species, scale 0 to 10 where 0 is no effect and 10 is complete control
[27] = Rate 250 g/ha, Pre-emergence, flood-test species, scale 0 to 10, 0 is no effect, 10 is complete control
[28] = Rate 500 g/ha, Pre-emergence, flood test species, scale 0 to 10 (0 no effect, 10 complete control)

Cc1cc(C)c(-n2c(=O)on(C(=O)N(c3ccc(F)cc3)C(C)C)c2=O)c(Br)c1 [Compound 224]
Sugarbeets plant response rating [1, 18]: 0
Sugarbeets plant response rating [1, 19]: 0
Plant response rating, Sugarbeets [1, 20]: 0
Sugarbeets plant response rating [1, 21]: 1
Sugarbeets plant response rating [1, 22]: 2
Sugarbeets plant response rating [1, 23]: 0
Plant response rating (0 to 10; 0 is no effect, 10 is complete control), Sugarbeets ([1]; Rate 250 g/ha, Postemergence): 4
Sugarbeets plant response rating [1, 24]: 4
S. Flatsedge plant response rating [2, 25]: 0
S. Flatsedge plant response rating [2, 26]: 0
S. Flatsedge plant response rating [2, 27]: 0
S. Flatsedge plant response rating [2, 28]: 0
Wheat plant response rating [3, 18]: 0
Wheat plant response rating [3, 19]: 0
Plant response rating, Wheat [3, 20]: 0
Wheat plant response rating [3, 21]: 0
Wheat plant response rating [3, 22]: 0
Wheat plant response rating [3, 23]: 0
Plant response rating (0 to 10; 0 is no effect, 10 is complete control), Wheat ([3]; Rate 250 g/ha, Postemergence): 0
Wheat plant response rating [3, 24]: 0
Bedstraw plant response rating [4, 18]: 0
Bedstraw plant response rating [4, 19]: 0
Plant response rating, Bedstraw [4, 20]: 0
Bedstraw plant response rating [4, 21]: 3
Bedstraw plant response rating [4, 22]: 3
Bedstraw plant response rating [4, 23]: 0
Plant response rating (0 to 10; 0 is no effect, 10 is complete control), Bedstraw ([4]; Rate 250 g/ha, Postemergence): 4
Bedstraw plant response rating [4, 24]: 4
Nutsedge plant response rating [5, 18]: 0
Nutsedge plant response rating [5, 21]: 0
Nutsedge plant response rating [5, 22]: 0
Plant response rating (0 to 10; 0 is no effect, 10 is complete control), Nutsedge ([5]; Rate 250 g/ha, Postemergence): 0
Nutsedge plant response rating [5, 24]: 0
Ducksalad plant response rating [6, 25]: 0
Ducksalad plant response rating [6, 26]: 0
Ducksalad plant response rating [6, 27]: 0
Ducksalad plant response rating [6, 28]: 0
Rice plant response rating [7, 25]: 0
Rice plant response rating [7, 26]: 0
Rice plant response rating [7, 27]: 0
Rice plant response rating [7, 28]: 0
B. signalgrass plant response rating [8, 18]: 0
B. signalgrass plant response rating ([8]; Preemergence, Rate 250 g/ha, scale 0 to 10, 0 is no effect, 10 is complete control): 4
Plant response rating, B. signalgrass [8, 20]: 4
B. signalgrass plant response rating [8, 21]: 0
B. signalgrass plant response rating ([8]; Rate 125 g/ha, Postemergence, scale 0 (no effect) to 10 (complete control)): 0
B. signalgrass plant response rating [8, 23]: 3
Plant response rating (0 to 10; 0 is no effect, 10 is complete control), B. signalgrass ([8]; Rate 250 g/ha, Postemergence): 0
B. signalgrass plant response rating [8, 24]: 0
Rape plant response rating [9, 18]: 0
Rape plant response rating [9, 19]: 0
Plant response rating, Rape [9, 20]: 0
Rape plant response rating [9, 21]: 0
Rape plant response rating [9, 22]: 0
Rape plant response rating [9, 23]: 0
Plant response rating (0 to 10; 0 is no effect, 10 is complete control), Rape ([9]; Rate 250 g/ha, Postemergence): 0
Rape plant response rating [9, 24]: 0
Velvetleaf plant response rating [10, 18]: 0
Velvetleaf plant response rating [10, 19]: 0
Plant response rating, Velvetleaf [10, 20]: 0
Velvetleaf plant response rating [10, 21]: 0
Velvetleaf plant response rating [10, 22]: 0
Velvetleaf plant response rating [10, 23]: 0
Plant response rating (0 to 10; 0 is no effect, 10 is complete control), Velvetleaf ([10]; Rate 250 g/ha, Postemergence): 0
Velvetleaf plant response rating [10, 24]: 4
Cocklebur plant response rating [11, 18]: 0
Cocklebur plant response rating [11, 19]: 0
Plant response rating, Cocklebur [11, 20]: 0
Cocklebur plant response rating [11, 21]: 0
Cocklebur plant response rating [11, 22]: 0
Cocklebur plant response rating [11, 23]: 0
Plant response rating (0 to 10; 0 is no effect, 10 is complete control), Cocklebur ([11]; Rate 250 g/ha, Postemergence): 0
Cocklebur plant response rating [11, 24]: 1
Wild oats plant response rating [12, 18]: 0
Wild oats plant response rating [12, 19]: 0
Plant response rating, Wild oats [12, 20]: 2
Wild oats plant response rating [12, 21]: 0
Wild oats plant response rating [12, 22]: 0
Wild oats plant response rating [12, 23]: 0
Plant response rating (0 to 10; 0 is no effect, 10 is complete control), Wild oats ([12]; Rate 250 g/ha, Postemergence): 0
Wild oats plant response rating [12, 24]: 0
Soybean plant response rating [13, 18]: 0
Soybean plant response rating [13, 19]: 0
Plant response rating, Soybean [13, 20]: 0
Soybean plant response rating [13, 21]: 2
Soybean plant response rating [13, 22]: 3
Soybean plant response rating [13, 23]: 0
Plant response rating (0 to 10; 0 is no effect, 10 is complete control), Soybean ([13]; Rate 250 g/ha, Postemergence): 4
Soybean plant response rating [13, 24]: 2
Corn plant response rating [14, 18]: 0
Corn plant response rating [14, 19]: 0
Plant response rating, Corn [14, 20]: 0
Corn plant response rating [14, 21]: 0
Corn plant response rating [14, 22]: 0
Corn plant response rating [14, 23]: 0
Plant response rating (0 to 10; 0 is no effect, 10 is complete control), Corn ([14]; Rate 250 g/ha, Postemergence): 0
Corn plant response rating [14, 24]: 0
Crabgrass plant response rating [15, 18]: 2
Crabgrass plant response rating [15, 19]: 9
Plant response rating, Crabgrass [15, 20]: 10
Crabgrass plant response rating [15, 21]: 0
Crabgrass plant response rating [15, 22]: 0
Crabgrass plant response rating [15, 23]: 5
Plant response rating (0 to 10; 0 is no effect, 10 is complete control), Crabgrass ([15]; Rate 250 g/ha, Postemergence): 3
Crabgrass plant response rating [15, 24]: 0
Blackgrass plant response rating [16, 18]: 2
Blackgrass plant response rating [16, 19]: 3
Plant response rating, Blackgrass [16, 20]: 5
Blackgrass plant response rating [16, 21]: 0
Blackgrass plant response rating [16, 22]: 0
Blackgrass plant response rating [16, 23]: 2
Plant response rating (0 to 10; 0 is no effect, 10 is complete control), Blackgrass ([16]; Rate 250 g/ha, Postemergence): 3
Blackgrass plant response rating [16, 24]: 4
Barnyardgrass plant response rating [17, 25]: 0
Barnyardgrass plant response rating [17, 26]: 0
Barnyardgrass plant response rating [17, 27]: 0
Barnyardgrass plant response rating [17, 28]: 0
